We go through 14 compounds from PubChem BioAssay AID328 (DTP/NCI, 2004).

“And” between values parts separate entries of the source, which are not always exact repeats. Equal values may be shown once. Toxic doses and inconclusive results are not listed.

In the assay the test system is BDF1 mice, P388 leukemia ip, median survival T/C. As to the kind of experiment: NCI In Vivo Anticancer Drug Screen. Data for tumor model P388 Leukemia (intraperitoneal) in B6D2F1 (BDF1) mice. The settings on record: endpoint: median survival time, higher = longer survival. In short, it runs like this:
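Antitumour effect was judged in vivo: survival in drug-treated mice, normalised to that of vehicle-dosed controls, gives the reported T/C.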

Setting [1] is: dose: 25.0 mg/kg/injection, schedule: Q01DX009 (ip), vehicle: saline + alcohol.
The mark [2] stands for this setting: dose: 50.0 mg/kg/injection, schedule: Q01DX009 (ip), vehicle: Klucel (hydroxypropylcellulose) (HPC).
The mark [3] stands for this setting: dose: 100.0 mg/kg/injection, schedule: Q01DX009 (ip), vehicle: Klucel (hydroxypropylcellulose) (HPC).
Setting [4] is: dose: 100.0 mg/kg/injection, schedule: Q04DX003 (ip), vehicle: Klucel (hydroxypropylcellulose) (HPC).
Setting [5] is: dose: 200.0 mg/kg/injection, schedule: Q04DX003 (ip), vehicle: Klucel (hydroxypropylcellulose) (HPC).
Setting [6] is: dose: 100.0 mg/kg/injection, schedule: Q04DX003 (ip), vehicle: saline.
Where [7] appears, read: dose: 200.0 mg/kg/injection, schedule: Q04DX003 (ip), vehicle: saline.
Setting [8] is: dose: 400.0 mg/kg/injection, schedule: Q04DX003 (ip), vehicle: saline.
Where [9] appears, read: dose: 50.0 mg/kg/injection, schedule: Q01DX009 (ip), vehicle: saline with Tween-80.

Consider `COc1cc2cc(Oc3ccc4ccc(=O)oc4c3)c(=O)oc2cc1O`, for which the T/C is 95 % of control (dose: 3.12 mg/kg/injection, schedule: Q01DX009 (ip), vehicle: carboxymethylcellulose (CMC)); 116 % of control (dose: 6.25 mg/kg/injection, schedule: Q01DX009 (ip), vehicle: carboxymethylcellulose (CMC)); 90 % of control (dose: 6.25 mg/kg/injection, schedule: Q01DX009 (ip), vehicle: saline + alcohol); 104 % of control (dose: 12.5 mg/kg/injection, schedule: Q01DX009 (ip), vehicle: carboxymethylcellulose (CMC)); 95 % of control (dose: 12.5 mg/kg/injection, schedule: Q01DX009 (ip), vehicle: saline + alcohol); 108 % of control (dose: 25.0 mg/kg/injection, schedule: Q01DX009 (ip), vehicle: carboxymethylcellulose (CMC)). Besides, the T/C under setting [1] was 113 % of control.

In the case of `N#Cc1ccc(-c2ccc(C#N)cc2Br)c(Br)c1`, the T/C (dose: 22.0 mg/kg/injection, schedule: Q01DX009 (ip), vehicle: Klucel (hydroxypropylcellulose) (HPC)) was 92 % of control; the T/C (dose: 25.0 mg/kg/injection, schedule: Q01DX009 (ip), vehicle: Klucel (hydroxypropylcellulose) (HPC)) is 110 % of control; the T/C (dose: 33.0 mg/kg/injection, schedule: Q01DX009 (ip), vehicle: Klucel (hydroxypropylcellulose) (HPC)) is 95 % of control; the T/C under setting [2] was 100 % of control; the T/C (dose: 75.0 mg/kg/injection, schedule: Q01DX009 (ip), vehicle: Klucel (hydroxypropylcellulose) (HPC)) was 89 % of control; the T/C under setting [3] is 88 % of control and 110 % of control. Moreover, the T/C by setting is: under setting [4], 95 % of control; under setting [5], 100 % of control; (dose: 400.0 mg/kg/injection, schedule: Q04DX003 (ip), vehicle: Klucel (hydroxypropylcellulose) (HPC)) 100 % of control.

Regarding `O=C(O)c1c(Cl)c(Cl)c(Cl)c(Cl)c1C(=O)O.O=C(O)c1c(Cl)c(Cl)c(Cl)c(Cl)c1C(=O)O.[Pt]`, the T/C by setting is: (dose: 25.0 mg/kg/injection, schedule: Q04DX003 (ip), vehicle: saline sonified) 115 % of control; (dose: 50.0 mg/kg/injection, schedule: Q04DX003 (ip), vehicle: saline sonified) 120 % of control.

Take `O=c1[nH]cc[nH]1`: the T/C by setting is: (dose: 100.0 mg/kg/injection, schedule: Q01DX009 (ip), vehicle: saline) 95 % of control; under setting [6], 100 % of control; (dose: 200.0 mg/kg/injection, schedule: Q01DX009 (ip), vehicle: saline) 114 % of control; under setting [7], 108 % of control; (dose: 264.0 mg/kg/injection, schedule: Q01DX009 (ip), vehicle: saline) 122 % of control; (dose: 400.0 mg/kg/injection, schedule: Q01DX009 (ip), vehicle: saline) 122 % of control. In addition, the T/C under setting [8] is 104 % of control.

For the compound `Cc1ccc(C(=O)C2CN(C)CCC2(O)c2ccc(C)cc2)cc1` (centres undefined), the T/C was 90 % of control (dose: 100.0 mg/kg/injection, schedule: Q01DX001 (ip), vehicle: Klucel (hydroxypropylcellulose) (HPC)); 110 % of control (dose: 200.0 mg/kg/injection, schedule: Q01DX001 (ip), vehicle: Klucel (hydroxypropylcellulose) (HPC)); 90 % of control (dose: 400.0 mg/kg/injection, schedule: Q01DX001 (ip), vehicle: Klucel (hydroxypropylcellulose) (HPC)).

For the compound `CCOC(=O)CSc1sc(C(=O)OCC)c(N)c1C#N`, the T/C was 99 % of control (dose: 12.5 mg/kg/injection, schedule: Q01DX009 (ip), vehicle: saline with Tween-80); 99 % of control (dose: 25.0 mg/kg/injection, schedule: Q01DX009 (ip), vehicle: saline with Tween-80); 99 % of control under setting [9].

As for `Clc1ccc2c(Cl)ncnc2c1`, the T/C runs as follows: (dose: 100.0 mg/kg/injection, schedule: Q04DX003 (ip), vehicle: saline with Tween-80) 104 % of control; (dose: 200.0 mg/kg/injection, schedule: Q04DX003 (ip), vehicle: saline with Tween-80) 109 % of control.

Turning to `CSc1nccc(=O)n1-c1cccc(C(F)(F)F)c1`, the T/C was 107 % of control under setting [4] and 107 % of control under setting [5].

Turning to `CC(=O)c1ccccc1-n1c(C)ccc1C`, the T/C reads like this: under setting [1], 114 % of control; (dose: 50.0 mg/kg/injection, schedule: Q01DX009 (ip), vehicle: saline + alcohol) 122 % of control; (dose: 50.0 mg/kg/injection, schedule: Q04DX003 (ip), vehicle: saline) 96 % of control; (dose: 100.0 mg/kg/injection, schedule: Q01DX009 (ip), vehicle: saline + alcohol) 116 % of control; under setting [6], 119 % of control; (dose: 200.0 mg/kg/injection, schedule: Q01DX009 (ip), vehicle: saline + alcohol) 99 % of control. Further, the T/C under setting [7] was 92 % of control and the T/C under setting [8] was 97 % of control.

With `CNc1ncnc2nc(OC)[nH]c12`, the T/C reads like this: (dose: 0.78 mg/kg/injection, schedule: Q01DX009 (ip), vehicle: saline with Tween-80) 95 % of control; (dose: 1.56 mg/kg/injection, schedule: Q01DX009 (ip), vehicle: saline with Tween-80) 100 % of control; (dose: 3.13 mg/kg/injection, schedule: Q01DX009 (ip), vehicle: saline with Tween-80) 98 % of control; (dose: 6.25 mg/kg/injection, schedule: Q01DX009 (ip), vehicle: saline with Tween-80) 101 % of control.

Consider `N=C(N)c1cn(C2OC(CO)C(O)C2O)c2ncnc(N)c12` (centres undefined), for which the T/C is 156 % of control (dose: 0.44 mg/kg/injection, schedule: Q01DX009 (ip), vehicle: saline); 102 % of control (dose: 0.44 mg/kg/injection, schedule: Q04DX003 (ip), vehicle: saline); 164 % of control (dose: 0.66 mg/kg/injection, schedule: Q01DX009 (ip), vehicle: saline); 109 % of control (dose: 0.66 mg/kg/injection, schedule: Q04DX003 (ip), vehicle: saline); 160 % of control (dose: 1.0 mg/kg/injection, schedule: Q01DX009 (ip), vehicle: Klucel (hydroxypropylcellulose) (HPC)); 162 % of control (dose: 1.0 mg/kg/injection, schedule: Q01DX009 (ip), vehicle: saline). Further, the T/C runs as follows: (dose: 1.0 mg/kg/injection, schedule: Q04DX003 (ip), vehicle: saline) 100 % of control; (dose: 1.5 mg/kg/injection, schedule: Q01DX009 (ip), vehicle: saline) 173 % of control; (dose: 3.13 mg/kg/injection, schedule: Q01DX009 (ip), vehicle: saline) 202 % of control; (dose: 6.25 mg/kg/injection, schedule: Q04DX003 (ip), vehicle: saline) 154 % of control; (dose: 8.0 mg/kg/injection, schedule: Q01DX009 (ip), vehicle: Klucel (hydroxypropylcellulose) (HPC)) 90 % of control and 105 % of control; (dose: 12.5 mg/kg/injection, schedule: Q01DX009 (ip), vehicle: saline) 86 % of control. Also, the T/C runs as follows: (dose: 12.5 mg/kg/injection, schedule: Q04DX003 (ip), vehicle: saline) 177 % of control; (dose: 16.5 mg/kg/injection, schedule: Q04DX003 (ip), vehicle: saline) 159 % of control and 181 % of control; (dose: 25.0 mg/kg/injection, schedule: Q04DX003 (ip), vehicle: saline) 181 % of control and 190 % of control; (dose: 37.5 mg/kg/injection, schedule: Q04DX003 (ip), vehicle: saline) 181 % of control.

As for `C[N+](C)(C)c1ncnc2nc[nH]c12`, the T/C (dose: 15.0 mg/kg/injection, schedule: Q01DX010 (ip), vehicle: saline) is 91 % of control and 100 % of control; the T/C (dose: 30.0 mg/kg/injection, schedule: Q01DX010 (ip), vehicle: saline) was 100 % of control and 104 % of control; the T/C (dose: 60.0 mg/kg/injection, schedule: Q01DX010 (ip), vehicle: saline) is 91 % of control and 100 % of control; the T/C (dose: 100.0 mg/kg/injection, schedule: Q01DX001 (ip), vehicle: saline) was 100 % of control; the T/C (dose: 120.0 mg/kg/injection, schedule: Q01DX010 (ip), vehicle: saline) is 91 % of control and 95 % of control; the T/C (dose: 200.0 mg/kg/injection, schedule: Q01DX001 (ip), vehicle: saline) was 110 % of control.

As to `S=c1nc[nH]c2c1ncn2C1CCCO1` (centres undefined), the T/C under setting [9] is 95 % of control and the T/C (dose: 100.0 mg/kg/injection, schedule: Q01DX009 (ip), vehicle: saline with Tween-80) was 118 % of control.

Consider `O=[N+]([O-])c1cc([N+](=O)[O-])c(Nc2cccc3ccccc23)c([N+](=O)[O-])c1`, for which the T/C was 100 % of control under setting [2]; 100 % of control under setting [3]; 103 % of control (dose: 200.0 mg/kg/injection, schedule: Q01DX009 (ip), vehicle: Klucel (hydroxypropylcellulose) (HPC)).
